Assay results reported in publication PMC3779320, “Bub3 reads phosphorylated MELT repeats to promote spindle assembly checkpoint signaling” (eLife, 2013).
Square brackets hold non-standard residues; d marks the D form. Peptide text beside a SMILES is read from it. pT = C[C@@H](OP(=O)(O)O)[C@H](N)C(=O)O

Target: T1, Bub1^289–359–Bub3^R217A (Saccharomyces cerevisiae, UniProt P26449+P41695, R217A)
T1 construct: S. cerevisiae Bub1^289–359 and for full length Bub3; GST (N, cleaved yes); made in house; host or cells: E. coli BL21 DE3 plysS
T1 sequence (P26449 1-341 R217A): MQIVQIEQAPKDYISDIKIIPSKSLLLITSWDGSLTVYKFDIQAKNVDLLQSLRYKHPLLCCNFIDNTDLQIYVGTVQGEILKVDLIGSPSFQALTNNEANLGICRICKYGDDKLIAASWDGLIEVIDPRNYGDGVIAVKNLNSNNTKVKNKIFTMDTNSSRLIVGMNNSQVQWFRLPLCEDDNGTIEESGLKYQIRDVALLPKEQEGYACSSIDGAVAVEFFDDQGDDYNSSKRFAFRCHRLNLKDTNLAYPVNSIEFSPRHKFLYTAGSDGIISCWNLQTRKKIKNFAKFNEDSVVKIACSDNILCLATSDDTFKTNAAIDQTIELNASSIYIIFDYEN
T1 sequence (P41695 289-359): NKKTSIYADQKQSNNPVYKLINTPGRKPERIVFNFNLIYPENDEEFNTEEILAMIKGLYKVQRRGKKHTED
Assay: ITC binding to Bub1^289–359–Bub3^R217A
Details: Bub3 R217A compared with wild type (13- to 25-fold for R217A or R239A)
Source text: Because the presence of a phosphate on Thr172^Spc105/Knl1 is essential for high-affinity binding of ScBub1^289–359–Bub3 to MELT^P peptides (Figure 1), we concentrated our mutational analysis on two residues that are directly implicated in the recognition of the peptide’s phospho-threonine, Arg217^Bub3 and Arg239^Bub3. Positively charged residues are invariant at these positions of the Bub3 alignment (Figure 2C). We generated single or double alanine mutants of Arg217^Bub3 and Arg239^Bub3 in the context of ScBub1^289–359–Bub3 and tested their binding affinity for the MELT2^P peptide by ITC.
cDNA sequences coding for S. cerevisiae Bub1^289–359 and for full length Bub3 were subcloned in the first and second cassettes of pGEX-6P-2rbs vector ([Ciferri et al., 2005]). In this construct, the cDNA encoding Bub1^289–359 was sub-cloned in frame with the gene encoding GST and a cleavage site for PreScission protease, and was translated from the first ribosome-binding site (rbs). Untagged Bub3 was subcloned downstream of the second rbs in the same vector. Expression was carried out in BL21 DE3 plysS cells in LB medium by auto-induction with 0.3% lactose at 18°C for approximately 16 hr. […]
Binding isotherm was measured at 25°C by isothermal titration calorimetry on a MicroCal ITC200 device (GE Healthcare, Piscataway, NJ). […]

CC[C@H](C)[C@H](NC(=O)[C@H](CO)NC(=O)[C@H](CCCNC(=N)N)NC(=O)[C@@H]1CCCN1C(=O)[C@H](Cc1ccccc1)NC(=O)[C@@H](NC(=O)[C@H](CCC(=O)O)NC(=O)[C@@H](NC(=O)[C@H](CCSC)NC(=O)[C@H](CCC(=O)O)NC(=O)[C@H](CCSC)NC(=O)[C@H](CO)NC(=O)[C@@H](NC(=O)[C@@H]1CCCN1C(=O)[C@H](CC(=O)O)NC(C)=O)[C@@H](C)O)[C@@H](C)OP(=O)(O)O)C(C)C)C(=O)N[C@@H](CCCNC(=N)N)C(=O)N[C@@H](CCC(N)=O)C(=O)N[C@@H](CCCCN)C(=O)N[C@@H](CC(N)=O)C(N)=O [MELT2^P] (Ac-DPTSMEM[pT]EVFPRSIRQKN-NH2; N-terminus and C-terminus assumed)
fold reduction in binding affinity: 13 fold
